From PMC8424372 (Journal of Pharmaceutical Analysis, 2020)
Like-named read-outs stand apart in the source and are kept apart here.

Experiments:
[1] = type: in vivo, human; conditions: for Detection in human plasma: after oral Gumiganghwal-tang tablets at maximum daily dose (9.6 g); for Shape of plasma concentration-time profile: after oral Gumiganghwal-tang tablets (9.6 g), humans; for AUC(0-inf) / Cmax / Tmax / half-life / Vd/F: male, human, po, 9.6 g
[2] = Freeze-thaw stability in human plasma; type: in vitro ADME; conditions: −80 °C/25 °C, mean ± SD, n = 5, %

Structure (SMILES) | Detection in human plasma [1] | Freeze-thaw stability (3 cycles) ([2]; spiked conc. 400 ng/mL) | Freeze-thaw stability (3 cycles) ([2]; spiked conc. 2 ng/mL) | Shape of plasma concentration-time profile [1] | AUC(0-inf) ([1]; plasma) | Cmax ([1]; plasma) | Tmax ([1]; plasma) | half-life ([1]; plasma) | other results
C=CCc1ccc(OC)c(OC)c1 [Methyl eugenol, methyl eugenol] | not detected | 101.10 ± 2.84% | – | – | – | – | – | – | Freeze-thaw stability (3 cycles) ([2]; spiked conc. 5 ng/mL): 98.48 ± 2.51%
OCC1=C[C@@H](O)[C@@H]2C=CO[C@@H](O[C@@H]3O[C@H](CO)[C@@H](O)[C@H](O)[C@H]3O)[C@H]12 [Aucubin, aucubin] | not detected | – | 97.78 ± 4.39% | – | – | – | – | – | Freeze-thaw stability (3 cycles) ([2]; spiked conc. 500 ng/mL): 100.15 ± 2.79%
CC(C)=CCOc1c2occc2cc2ccc(=O)oc12 [Imperatorin, imperatorin] | not detected | 101.28 ± 2.93% | 98.44 ± 2.60% | – | – | – | – | – | –
O=c1ccc2cc3ccoc3c(O)c2o1 [Xanthotoxol, xanthotoxol] | – | 98.83 ± 2.95% | 102.24 ± 4.31% | double peaks | 110 ± 38.6 ng·h/mL | 3.78 ± 1.39 ng/mL | 4.48 ± 1.76 h | 8.98 ± 3.01 h | –
CC1(C)[C@@H](O)CC[C@]2(C)[C@H]3C(=O)C=C4[C@@H]5C[C@@](C)(C(=O)O)CC[C@]5(C)CC[C@@]4(C)[C@]3(C)CC[C@@H]12 [18-beta-glycyrrhetinic acid] | – | – | – | double peaks | 988 ± 125 ng·h/mL | 89.7 ± 14.4 ng/mL | 6.42 ± 1.01 h | 12.1 ± 2.28 h | –
C=C1CCC[C@]2(C)C[C@]3(O)OC(=O)C(C)=C3C[C@@H]12 [Atractylenolide III, atractylenolide III] | – | 96.73 ± 4.82% | 99.57 ± 2.04% | double peaks | 417 ± 99.3 ng·h/mL | 17.5 ± 5.6 ng/mL | 4.33 ± 1.21 h | 24.2 ± 5.29 h | Vd/F ([1]; plasma): 26.2 ± 6.26 L
OC[C@H]1O[C@@H](O[C@@H]2OC=C[C@H]3[C@H](O)[C@@H]4O[C@]4(CO)[C@@H]23)[C@H](O)[C@@H](O)[C@@H]1O [Catalpol, catalpol] | not detected | – | 101.28 ± 2.95% | – | – | – | – | – | Freeze-thaw stability (3 cycles) ([2]; spiked conc. 500 ng/mL): 100.03 ± 2.84%
O=c1cc(-c2ccccc2)oc2cc(O)c(O)c(O)c12 [Baicalein, baicalein] | – | 100.00 ± 2.30% | 96.92 ± 5.31% | double peaks | 540 ± 122 ng·h/mL | 52.6 ± 21.2 ng/mL | 0.78 ± 0.23 h | 7.78 ± 1.91 h | –
CC1(C)O[C@H]1COc1c2ccoc2cc2oc(=O)ccc12 [Oxypeucedanin, oxypeucedanin] | – | 99.31 ± 2.36% | 100.16 ± 1.88% | double peaks | 449 ± 103 ng·h/mL | 4.46 ± 1.29 ng/mL | 8.25 ± 2.07 h | 70.5 ± 10.6 h | Vd/F ([1]; plasma): 275 ± 56.4 L
O=C(O)[C@H]1O[C@@H](Oc2cc3oc(-c4ccccc4)cc(=O)c3c(O)c2O)[C@H](O)[C@@H](O)[C@@H]1O [Baicalin, baicalin] | – | 97.95 ± 3.22% | 99.53 ± 2.03% | double peaks | – | – | – | – | AUC(0-inf) ([1]; in vivo): 805000 ± 121000 ng·h/mL; Cmax ([1]; in vivo): 34300 ± 5220 ng/mL; Tmax ([1]; in vivo): 7.99 ± 1.52 h; Vd/F ([1]; in vivo): 2.5 ± 0.21 L; half-life ([1]; in vivo): 14.4 ± 3.98 h
CC(C)=CC(O)C/C(C)=C/COc1c2ccoc2cc2oc(=O)ccc12 (stereo not drawn) [Notopterol, notopterol] | not detected | 99.46 ± 2.59% | 97.79 ± 3.42% | – | – | – | – | – | –
CC1(C)[C@@H](O[C@H]2O[C@H](C(=O)O)[C@@H](O)[C@H](O)[C@H]2O[C@@H]2O[C@H](C(=O)O)[C@@H](O)[C@H](O)[C@H]2O)CC[C@]2(C)[C@H]3C(=O)C=C4[C@@H]5C[C@@](C)(C(=O)O)CC[C@]5(C)CC[C@@]4(C)[C@]3(C)CC[C@@H]12 [Glycyrrhizin, glycyrrhizin] | – | 99.43 ± 2.90% | 97.58 ± 4.38% | double peaks | 67.6 ± 15.3 ng·h/mL | 2.16 ± 1.04 ng/mL | 8.04 ± 1.16 h | 28.8 ± 4.24 h | Vd/F ([1]; plasma): 5860 ± 1090 L
